Reference: patent US10993923B2, “Method for ameliorating fibrosis using 1-[4-chloro-3-(trifluoromethyl)phenyl]-3-[3-(4-cyanophenoxy)phenyl]urea” (priority 2016, dated 2021)

Legend:
[1] = test system: mouse fibroblasts (NIH3T3 cell line); experiment: Cell viability assay (WST-1), NIH3T3 fibroblasts; assay type: cell-based; settings: FIG. 7A
Procedure: Murine NIH3T3 fibroblasts and human lung epithelial cells (A549 cells) were purchased from the Bioresource Collection and Research Center (Hsinchu, Taiwan). Cells were cultured in Dulbecco's modified eagle medium (DMEM) containing 10% fetal bovine serum (FBS), 100 μg/mL penicillin, 100 μg/mL streptomycin. Cells were cultured at 37° C. in a humidified atmosphere of 5% CO2 and passaged every 4 to 5 days at 1:4 ratios.
Murine NIH3T3 fibroblasts were seeded into 96-well plates (1×10^3 cells/well). To measure the cell viability and the cell proliferation, 10% WST-1 (cell proliferation reagent WST-1, Roche) was added to each well and reacted for 3 hours. The reaction was catalyzed by mitochondrial reductase in active cells and the optical density (OD) was calculated by measuring the absorbance at 450 nm via a Bio-Rad ELISA analyzer.

[2] = test system: CCl4-induced hepatic fibrosis in mice; experiment: CCl4-induced hepatic fibrosis mice prevention model; assay type: in vivo, male C57BL/6J mice; settings: concurrently administered with CCl4 for 4 weeks; FIG. 11A-11E
Excerpt: In male C57BL/6J mice, liver fibrosis was induced by carbon tetrachloride (CCl4). The mice were given peritoneal injection of carbon tetrachloride for 4 or 8 weeks every two weeks.
(§1) The mice liver samples were stored in 10% formaldehyde, dehydrated with gradient alcohol, embedded in paraffin blocks, sectioned to a thickness of 3 μm, placed on glass slides, and stained with Picrosirius Red Stain kit (ScyTek, USA), following the manufacturer's instructions. The severity of liver fibrosis was graded according to the Ishak fibrosis score. Quantitative collagen-positive area (qCPA) was determined by densitometry via ImageJ software. Hepatic hydroxyproline concentrations were measured by the hydroxyproline assay kit (Biovision, USA), following the manufacturer's instructions Immunohistochemistry was performed by the Leica BOND-MAX automatic chromatograph (Leica Biosystems, Germany), following the manufacturer's instructions.

[3] = test system: BDL-induced cholestasis fibrosis in mice; experiment: Bile duct ligation (BDL) fibrosis mice treatment model; assay type: in vivo, Balb/C mice; settings: 10 mg/kg from day 8 until sacrifice on day 14 following BDL; FIG. 13C, 13D
Excerpt: In the bile duct ligation (BDL) mouse model, the common bile duct of Balb/C mice was double-ligated and excised. Mice were fed daily with vehicle or 1-[4-chloro-3-(trifluoromethyl)phenyl]-3-[3-(4-cyanophenoxy)phenyl]urea on day 1 or day 8 until they were sacrificed on day 14.
as §1

[4] = test system: LX2 cells; experiment: Cell viability (MTS), LX2 cells; assay type: cell-based, human; settings: 24 hours; effect more significant than sorafenib; FIG. 14A
Procedure: Rat immortal hepatic stellate cell line HSC-T6 and LX2 human hepatic stellate cell line were provided by Professor Scott Friedman of Mount Sinai Hospital in New York, USA. The primary mouse HSCs were obtained via the way: after intubating the hepatic portal vein of the mouse, the cells were perfused with Leffert's and ethylene glycol bis-aminoethyl ether tetraacetic acid (EGTA) buffer in situ, and then collagenase was injected to digest the liver tissue, and then the primary mouse HSCs were isolated by Histodnz gradient. […]
HSC-T6 cells, LX2 cells or primary mouse HSCs cells were seeded in 96-well plates (5,000 cells/well) for 24 hours, and the cells were treated with various concentrations of 1-[4-chloro-3-(trifluoromethyl)phenyl]-3-[3-(4-cyanophenoxy)phenyl]urea or Sorafenib for 24 or 48 hours. The effect of each reagent on the cell viability and the cell were evaluated by CellTiter 96 AQueous one solution of 3-(4,5-dimethylthiazol-2-yl)-5-(3-carboxymethoxyphenyl)-2-(4-sulfophenyl)-2H-tetra zolium, an inner, MTS (Promega, USA). […] The proportion of apoptotic cells was mixed the early (Annexin V+/PI−) and the late (Annexin V+/PI+) apoptotic cells measured by BD FACS Verse flow cytometry (BD, USA).

[5] = biological target: T1, SHP-1 (Homo sapiens, UniProt P29350); experiment: SHP-1 phosphatase activity, LX2 cells; assay type: cell-based
T1 construct: LX2 cell protein extract were reacted with anti-SHP-1 antibody in immunoprecipitation buffer overnight; endogenous in cells; host or cells: LX2 cells
Procedure: After drug treatment, mouse fibroblasts (NIH3T3 cell line), human lung epithelial cells (A549 cell line) or LX2 cell protein extract were reacted with anti-SHP-1 antibody in immunoprecipitation buffer overnight. Protein A/G Sepharose Fast Flow Beads (GE) were added to each sample, followed by a rotation reaction at 4° C. for 3 hours. The 96EnzChek® tyrosine phosphatase assay kit (R-22067) was used for SHP-1 activity assay (Invitrogen, USA).
Plasmids encoding the human wild-type SHP-1 and SHP-1 mutant, in which the N—SH2 domain was truncated (dN1) or one aspartic acid at site 61 was changed into an alanine residue (D61A) were cloned into the pCMV6-entry vector with myc-tag. These mutants were confirmed through DNA sequencing. Smart-pool siRNA, including the control (D-001810-10), and SHP-1 (PTPN6, L-009778-00-0005) were obtained from Dharmacon Inc. (Chicago, Ill., USA). For transient expression, SHP-1 plasmids or siRNA (final concentration, 100 nM) with the Lipofectamine 2000 transfection reagent were pretransfected into the LX2 cells for 24 h, following the manufacturer's instructions.

[6] = test system: hepatic stellate cells (HSC); experiment: Western blot in hepatic stellate cells (cell line not given); assay type: cell-based
Procedure: Rat immortal hepatic stellate cell line HSC-T6 and LX2 human hepatic stellate cell line were provided by Professor Scott Friedman of Mount Sinai Hospital in New York, USA. The primary mouse HSCs were obtained via the way: after intubating the hepatic portal vein of the mouse, the cells were perfused with Leffert's and ethylene glycol bis-aminoethyl ether tetraacetic acid (EGTA) buffer in situ, and then collagenase was injected to digest the liver tissue, and then the primary mouse HSCs were isolated by Histodnz gradient. HSC-T6 cells were cultured in Waymouth medium; LX2 cells and primary mouse HSCs were cultured in Dulbecco's Modified Eagle Medium (DMEM) containing 10% fetal bovine serum (FBS), 100 μg/mL penicillin, 100 μg/mL streptomycin, and 2 mM L-glutamine HSC-T6 cells, LX2 cells and primary mouse HSCs were cultured in a humidified incubator containing 5% carbon dioxide at 37° C. After adding the FBS, the resting HSC is started. For in vitro studies, various concentrations of 1-[4-chloro-3-(trifluoromethyl)phenyl]-3-[3-(4-cyanophenoxy)phenyl]urea and sorafenib were dissolved in dimethyl sulfoxide and subsequently added to cells, which were in 5% FBS, for a predetermined period of time.
Whole-cell extracts were obtained via RIPA buffer (Millipore, USA) and protein concentrations were quantified via a BCA protein assay kit (Thermo Fisher Scientific, USA). 20 or 25 μg of protein was added to various percentages of SDS-sodium dodecyl sulfate-acrylamide gel and blotted onto a polyvinylidene fluoride (PVDF) membrane. The membrane was then reacted with a primary antibody; after extensive washing, the membrane was reacted with a […] containing a second antibody. Proteins were detected by Immobilon Western Chemiluminescent HRP substrate (Millipore, USA) or ECL detection system (UVP Corporation, USA). […]

T1 sequence (P29350 whole entry): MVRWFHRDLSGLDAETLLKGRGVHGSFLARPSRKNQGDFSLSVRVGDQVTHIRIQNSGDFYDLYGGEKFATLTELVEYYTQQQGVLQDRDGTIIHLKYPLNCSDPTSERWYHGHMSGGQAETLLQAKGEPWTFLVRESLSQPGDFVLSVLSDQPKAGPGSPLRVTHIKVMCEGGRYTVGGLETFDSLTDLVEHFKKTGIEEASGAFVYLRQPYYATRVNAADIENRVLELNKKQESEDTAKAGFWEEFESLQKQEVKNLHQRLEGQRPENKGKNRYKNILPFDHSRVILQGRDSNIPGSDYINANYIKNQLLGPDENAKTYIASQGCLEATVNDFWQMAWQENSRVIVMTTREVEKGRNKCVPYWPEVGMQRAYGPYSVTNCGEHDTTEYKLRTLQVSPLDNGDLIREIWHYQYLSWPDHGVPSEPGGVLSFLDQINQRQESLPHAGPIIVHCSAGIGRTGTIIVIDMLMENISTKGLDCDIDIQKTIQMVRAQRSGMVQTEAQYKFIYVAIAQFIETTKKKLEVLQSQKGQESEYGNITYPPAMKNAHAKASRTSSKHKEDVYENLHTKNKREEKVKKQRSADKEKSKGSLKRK

Question: How did the “survival rate of mouse fibroblasts” value [1] turn out when `N#Cc1ccc(Oc2cccc(NC(=O)Nc3ccc(Cl)c(C(F)(F)F)c3)c2)cc1` [1-[4-chloro-3-(trifluoromethyl)phenyl]-3-[3-(4-cyanophenoxy)phenyl]urea] was run?
Answer: reduced the survival rate of mouse fibroblasts (NIH3T3 cell line) in a dose-dependent manner

Question: What about the “hepatic fibrosis (Picrosirius Red staining, qCPA, Ishak fibrosis score, α-SMA expression, hydroxyproline concentration)” value [2] of the same compound?
Answer: significant fibrosis regression

Question: What about the “quantitative collagen-positive area (qCPA)” value [3] of the same compound?
Answer: significantly reduced

Question: And the “viability of LX2 cells” value [4]?
Answer: dose-dependent effects to reduce the viability

Question: What about the “SHP-1 activity in the ectopic expression of the vector and wild-type SHP-1” value ([5]; FIG. 17C) of the same compound?
Answer: significantly increased the SHP-1 activity

Question: And the SHP-1 activity ([5]; LX2, sorafenib 5 μM, compound 2.5 or 5 μM, FIG. 16C)?
Answer: significantly increased the SHP-1 activity at a lower concentration

Question: What about the “enhancing SHP-1 activity, compared with sorafenib” value ([5]; test system not stated at the place, text refers to FIG. 2A) of the same compound?
Answer: better than the known anti-fibrosis drug sorafenib

Question: And the “IL-6-induced p-STAT3 upregulation” value ([6]; 10 μM for 4 hours, then IL-6 100 ng/mL 30 minutes, FIG. 15B)?
Answer: suppressed

Question: And the “cleavage of poly(ADP-ribose) polymerase (PARP) fragments” value ([6]; Western blotting, FIG. 14C)?
Answer: dose-dependently increased

Question: What about the “p-Akt and p-STAT3 after administering AG1295, a specific PDGFR inhibitor” value ([6]; independent of the PDGFR signaling, FIG. 15D) of the same compound?
Answer: still downregulated
